Here are results for three compounds from US12479839B2, “Crystalline form of ATR inhibitor and use thereof” (Wuxi Biocity Biopharmaceutics Co., Ltd., priority 2019, dated 2025).

Data set [1] can be described thus: Solid stability test of Crystal Form A under high temperature and high humidity. In kind it is physicochemical. Particulars: 40° C./75% humidity. How it is done: Two samples of Crystal Form A were weighed in parallel, each about 100 mg, placed on the bottom of a glass sample bottle and spread into a thin layer. The samples were sealed with aluminum foil paper, and some small holes were pierced in the aluminum foil paper to ensure that the sample can fully contact with the ambient air. The samples were placed at a constant temperature and humidity box under the condition of 40° C./75% humidity. The samples under the above conditions were sampled and tested on day 30, and the test results were compared with the initial test result on day 0.

Data set [2] can be described thus: Solid physical stability tests of Crystal Form A under different temperature, humidity and light conditions. In kind it is physicochemical. Particulars: Day 10, XRPD. How it is done: Four samples of Crystal Form A were weighed in parallel, each about 100 mg, placed on the bottom of a glass sample bottle and spread into a thin layer. The samples were sealed with aluminum foil paper, and some small holes were pierced in the aluminum foil paper to ensure that the sample can fully contact with the ambient air. Four prepared samples were placed in 25° C./92.5% relative humidity, 60° C., 40° C./75% and light conditions, respectively, and the physical stability of the samples on the 10th day was investigated. At the same time, a sample of about 100 mg of Crystal Form A was weighed separately, placed on the bottom of the glass sample bottle, sealed with a screw cap, and stored at −20° C. for use as control. On the 10th day, all the samples were taken out, returned to room temperature, and the appearance changes of the samples were observed. XRPD was used to detect the sample crystal forms. By comparing the accelerated samples with the control sample, the solid physical stability of Crystal Form A of the compound of formula (I) was determined.

Data set [3] in a line: In vivo pharmacokinetic study in female Balb/c Nude mice. Further details: species or system mouse. How it is done: Experimental procedure: The purpose of this study is to determine the pharmacokinetic parameters of the compound and calculate its gavage bioavailability in female Balb/c Nude mice.
Six female Balb/c Nude mice were used in this project, three mice were injected intravenously, with the dosage of 1 mg/kg, where plasma samples at 0 h (before administration) and at 0.0833, 0.25, 0.5, 1, 2, 4, 6, 8 and 24 h after administration were collected, and the other three mice were administered intragastrically with the dose of 10 mg/kg or 25 mg/kg, where plasma samples at 0 h (before administration) and at 0.5, 1, 2, 3, 4, 6, 8, 24 h after administration were collected. LC-MS/MS analysis was performed on the collected samples and data were collected. The collected analysis data were calculated with Phoenix WinNonlin 6.2.1 software for relevant pharmacokinetic parameters.
Note: C0 (nM) is the concentration of the drug in the body at 0 min; Cl (mL/min/kg) is the clearance rate of the drug in the body; Vdss (L/kg) is the volume of distribution of the drug in the body; T1/2 (h) is the half-life; AUC0-t (nM·h) is the amount of drug exposure in the body; Cmax (nM) is the highest concentration of the drug in the body; F is the bioavailability.

Data set [4] is described as follows: Solid stability tests of Crystal Form B under high temperature, high humidity and light conditions. In kind it is physicochemical. From the text:
The samples were sealed with aluminum foil paper, and some small holes were pierced in the aluminum foil paper to ensure that the sample can fully contact with the ambient air. The samples were placed in a constant temperature and humidity or light box under different humidity conditions. […] The test results were compared with the initial test results on day 0.

On to `Cc1cnn(C)c1-c1cc(N2CCOC[C@H]2C)nc(-c2cc(CO)cc3[nH]ccc23)n1` [Crystal Form A], for which the Appearance entry in data set [1] (day 0) and in data set [1] (day 30) was “White” each time. In addition, the figures for the Content in data set [1] (day 0) and in data set [1] (day 30) were 99.61% and 99.59%, respectively. For the same compound, the “Crystal Form” value in data set [1] (day 0), in data set [1] (day 30), in data set [2] (25° C./92.5% relative humidity (open)), in data set [2] (40° C./75% relative humidity (open)), in data set [2] (60° C. (open)) and in data set [2] (light) was “Form A” in each case. Further, in data set [2] (−20° C. sealed (control)), the “Crystal Form” value was “Form A”. Further, the Total impurity in data set [1] (day 0) came out at 0.39%; in data set [1] (day 30), 0.45%.
`Cc1cnn(C)c1-c1cc(N2CCOC[C@H]2C)nc(-c2cc(CO)cc3[nH]ccc23)n1` [Compound of formula (1)]: the F in data set [3] (10 mg/kg intragastric) worked out at 129.0%. The AUC in data set [3] (mouse, plasma, 1 mg/kg IV, read-out: AUC04) is 1.09 µM·h.
Turning to `Cc1cnn(C)c1-c1cc(N2CCOC[C@H]2C)nc(-c2cc(CO)cc3[nH]ccc23)n1` [Crystal Form B], the Content was determined as 98.4% in data set [4] (25° C./65% RH, 3 month); 99.8% in data set [4] (25° C./65% RH, 6 month); 99.0% in data set [4] (25° C./65% RH, day 0); 99.0% in data set [4] (25° C./92.5% RH, day 0); 98.9% in data set [4] (25° C./92.5% RH, day 5); 100.1% in data set [4] (25° C./92.5% RH, day 10). In addition, the Content in data set [4] (25° C./92.5% RH, day 30) is 99.7%; in data set [4] (40° C./75% RH, 1 month), 100.6%; in data set [4] (40° C./75% RH, 2 month), 100.4%; in data set [4] (40° C./75% RH, 3 month), 98.8%; in data set [4] (40° C./75% RH, 6 month), 99.8%; in data set [4] (40° C./75% RH, day 0), 99.0%. In addition, the Content in data set [4] (60° C., day 0) is reported as 99.0%; in data set [4] (60° C., day 5) it was 101.5%; in data set [4] (60° C., day 10), 101.6%; in data set [4] (60° C., day 30), 99.4%; in data set [4] (light, day 0) it was 99.0%; in data set [4] (light, day 5) it was 101.0%. For the same compound, the Content in data set [4] (light, day 10) stood at 100.7%. Besides, the “Crystal Form” value in data set [4] (25° C./65% RH, 3 month) was “Crystal Form B”; in data set [4] (25° C./65% RH, 6 month), “Crystal Form B”; in data set [4] (25° C./65% RH, day 0), “Crystal Form B”; in data set [4] (25° C./92.5% RH, day 0), “Crystal Form B”; in data set [4] (25° C./92.5% RH, day 5), “Crystal Form B”; in data set [4] (25° C./92.5% RH, day 10) it was “Crystal Form B”. In addition, the “Crystal Form” value in data set [4] (25° C./92.5% RH, day 30) was “Crystal Form B”; in data set [4] (40° C./75% RH, 1 month), “Crystal Form B”; in data set [4] (40° C./75% RH, 2 month), “Crystal Form B”; in data set [4] (40° C./75% RH, 3 month) it was “Crystal Form B”; in data set [4] (40° C./75% RH, 6 month), “Crystal Form B”; in data set [4] (40° C./75% RH, day 0), “Crystal Form B”. The “Crystal Form” value in data set [4] (60° C., day 0) is on record as “Crystal Form B”; in data set [4] (60° C., day 5), “Crystal Form B”; in data set [4] (60° C., day 10), “Crystal Form B”; in data set [4] (60° C., day 30) it was “Crystal Form B”; in data set [4] (light, day 0) it was “Crystal Form B”; in data set [4] (light, day 5) it was “Crystal Form B”. Further, the “Crystal Form” value in data set [4] (light, day 10) is listed as “Crystal Form B”. In addition, the Total impurity worked out at 0.45% in data set [4] (25° C./65% RH, 3 month); 0.43% in data set [4] (25° C./65% RH, 6 month); 0.42% in data set [4] (25° C./65% RH, day 0); 0.42% in data set [4] (25° C./92.5% RH, day 0); 0.44% in data set [4] (25° C./92.5% RH, day 5); 0.41% in data set [4] (25° C./92.5% RH, day 10). Also, the Total impurity was 0.41% in data set [4] (25° C./92.5% RH, day 30); 0.45% in data set [4] (40° C./75% RH, 1 month); 0.42% in data set [4] (40° C./75% RH, 2 month); 0.44% in data set [4] (40° C./75% RH, 3 month); 0.43% in data set [4] (40° C./75% RH, 6 month); 0.42% in data set [4] (40° C./75% RH, day 0). For the same compound, the Total impurity in data set [4] (60° C., day 0) came to 0.42%; in data set [4] (60° C., day 5), 0.43%; in data set [4] (60° C., day 10), 0.39%; in data set [4] (60° C., day 30), 0.41%; in data set [4] (light, day 0), 0.42%; in data set [4] (light, day 5), 0.44%. The compound further returned a Total impurity in data set [4] (light, day 10) of 0.42%.
